Values quoted from earlier work in patent US20220378840A1, “COMPOSITIONS, KITS AND METHODS FOR STORAGE OF BLOOD PRODUCTS AND METHODS OF USE THEREOF” (Rutgers, The State University of New Jersey, priority 2019, published 2022).

How the values were obtained:
[1] = system: RBCs; conditions: prolonged incubation in 3% L-carnitine
[2] = system: RBCs; conditions: 6% concentration L-carnitine
[3] = system: cells; conditions: 6% concentration HES
[4] = system: hemorrhagic shock; conditions: 6% concentration HES

Compound: C[N+](C)(C)C[C@H](O)CC(=O)[O-] [L-carnitine]
- toxicity on prolonged incubation [1]: non-toxic
- recovery of RBCs [2]: 80%

Compound: Hydroxyethyl starch [HES]
- cell survival during freezing and thawing [3]: improves cell survival
- oxidative stress and inflammatory response in hemorrhagic shock [4]: reduces oxidative stress and inflammatory response
